Assay [1] concerns BRAF^WT/G469A kinase activity in HEK293 cells. In words: Immunoblotting of HEK293 cells transiently transfected with BRAF^WT/G469A (pMEK, BRAF, MEK levels). The format is cell-based. The conditions noted are these: 0-100 μM, 4 hrs. On the procedure:
FIGS. 2A-2C illustrate TAT-tagged Braftide inhibits BRAF^WT/G469A kinase activity in HEK293 cells. HEK293 cells transiently transfected with BRAF^WT/G469A were treated with TAT-braftide or TAT peptide at the indicated concentrations (0, 10, 25, 50, 75, and 100 μM) for 4 hrs. Cell lysates were subjected to immunoblotting with the indicated antibodies: anti-BRAF, anti-pMEK, and anti-Actin. FIG. 2A illustrates effect of TAT-braftide on BRAF^WT/G469A kinase activity in HEK293 cells. FIG. 2B illustrates effect of TAT control peptide on BRAF^WT/G469A kinase activity in HEK293 cells. Western blots are representative of at least three independent experiments. The band intensities from the Western Blots were quantified in ImageJ. FIG. 2C illustrates confocal microscopy images of HEK293 cells treated with 25 μM braftide-Cy3 for 2 hr and stained with FLAG antibody for BRAF.
HEK293 cells were plated at one million cells per 2 mL :DMEM supplemented with 10% FBS and 1% L-glutarnine. These cells were incubated at 37° C. with 5% CO2 for 24 hours or until the cells reach a confluency of 40-60%. DNA (1-3 μg) was mixed with PEI-MAX in a 1:3 ratio in Opti-MEM at RT for ˜25 minutes and added onto the cells with fresh media. After 48 hrs, the cells were washed with cold PBS, harvested, lysed with 4% SDS and homogenized. For peptide assays, 48 hrs post-transfection, cells were treated with TAT-Braftide/TAT control in reduced serum media at the indicated concentrations for 4 hrs. The cells were then washed twice with PBS, lysed as above and quantified with the BCA protein assay. Equal amounts of cell lysates were loaded for immunoblotting and then probed for relevant proteins. […] Protein concentrations were determined with BCA assays for immunoblotting.
Braftide was conjugated with the TAT sequence ([…]; SEQ ID NO:2), a cell-penetrating peptide widely used in peptide drugs. […] The activity of BRAF was quantified by probing for phospho-MEK1/2. […] A Cy3-tagged version of braftide was synthesized and evaluated for its ability of crossing the plasma membrane using immunofluorescence experiments. […]

The test system of another assay is HCT-15 cells. The assay is described as follows: WST cell viability assay, HCT-15. The format is cell-based. The conditions noted are these: 48 hr. The method, then: (§1) Western blots are representative of at least three independent experiments. […] Cell viability was determined through the WST assay according to manufacturer's instructions. IC50 values were obtained from a dose-response curve (4-parameter logistic equation) in Origin, from three independent experiments.
(§2) Cells were seeded onto poly-lysine coated, clear-bottomed, 96-well plates at 15000 cells per well. […] Upon 48 hr treatment, cell viability was determined through the WST cell viability assay. According to manufacturers' instructions, 10 μL of the WST reagent was added to each well and incubated at 37° C. for 4 hrs. Absorbance readings for the plate were then taken at 450 nm in a Biotek plate reader.

The subject of the next assay is HCT116 cells. In words: WST cell viability assay, HCT116. The format is cell-based. The conditions noted are these: 48 hr. On the procedure: as §1, §2
For assay [2], the system named is MAPK signaling in HEK293 cells overexpressing wild-type BRAF or BRAF^G469A. In words: Cell-based synergy assay of TAT-braftide with ATP-competitive inhibitors in HEK293 cells overexpressing BRAF^WT or BRAF^G469A. On the procedure:
IC50 values were obtained from a dose-response curve (4-parameter logistic equation) in Origin, from three independent experiments. […] Western blots are representative of at least three independent experiments.
Cell lysates were subjected to immunoblotting for the indicated proteins.
HEK293 cells were plated at one million cells per 2 mL :DMEM supplemented with 10% FBS and 1% L-glutarnine. These cells were incubated at 37° C. with 5% CO2 for 24 hours or until the cells reach a confluency of 40-60%. DNA (1-3 μg) was mixed with PEI-MAX in a 1:3 ratio in Opti-MEM at RT for ˜25 minutes and added onto the cells with fresh media. After 48 hrs, the cells were washed with cold PBS, harvested, lysed with 4% SDS and homogenized. […] The cells were then washed twice with PBS, lysed as above and quantified with the BCA protein assay. Equal amounts of cell lysates were loaded for immunoblotting and then probed for relevant proteins. […] Cells were washed twice with PBS and processed as above. Protein concentrations were determined with BCA assays for immunoblotting.
The efficacy of current ATP-competitive BRAF inhibitors is limited to BRAF^V600E that signals as a monomer.

For a further assay, the target named is T1, BRAF^WT in HEK293 cells (Homo sapiens, UniProt P15056).
T1 construct: expressed in transfected cells; host or cells: HEK293
In words: BRAF degradation: bortezomib rescue and cycloheximide half-life in HEK293 cells. The conditions noted are these: pre-treated with 0.4 μM Bortezomib 5 hr, then 75 and 100 μM peptide 4 hr. The format is cell-based. The method, then:
FIG. 3B illustrates quantification of BRAF protein levels after rescue with Bortezomib. […] FIG. 3D illustrates quantification of the Western Blot to determine the half-life (t,1/2) of BRAF. Western blots are representative of at least three independent experiments.
HEK293 cells transiently transfected with wild-type BRAF were treated with cycloheximide.

Assay [3] deals with MAPK pathway in the HCT116 cell line. In words: MAPK pathway inhibition in HCT116 cells (immunoblotting). The format is cell-based. The following applies: 0-75 μM, 4 hr; read-out: IC50 of MAPK pathway inhibition (phospho-MEK, phospho-ERK, degradation of endogenous BRAF and MEK). The method, then:
as §1
A general note: Immunoblotting shows a protein as a band on a membrane.

A further assay addresses T2, p61 BRAF^V600E (Homo sapiens, UniProt P15056, DEL169-380/V600E).
T2 construct: expressed in transfected cells; host or cells: HEK293
The assay is described as follows: Immunoblotting of HEK293 cells transfected with p61-BRAF^V600E. The format is cell-based. The following applies: increasing concentrations, 4 hr.

The mark [4] stands for this setting: dabrafenib alone, wild-type BRAF, 1 hr.

As usually defined, the EC50 is the concentration needed to bring the measured effect to its halfway point. In general, IC50 refers to the concentration that inhibits the measured activity by half.

Where no end group is shown, it is not given here. Where only a bound is given, the exact number is not on record here.

T2 sequence (P15056 with tags, fused parts or gaps DEL169-380/V600E): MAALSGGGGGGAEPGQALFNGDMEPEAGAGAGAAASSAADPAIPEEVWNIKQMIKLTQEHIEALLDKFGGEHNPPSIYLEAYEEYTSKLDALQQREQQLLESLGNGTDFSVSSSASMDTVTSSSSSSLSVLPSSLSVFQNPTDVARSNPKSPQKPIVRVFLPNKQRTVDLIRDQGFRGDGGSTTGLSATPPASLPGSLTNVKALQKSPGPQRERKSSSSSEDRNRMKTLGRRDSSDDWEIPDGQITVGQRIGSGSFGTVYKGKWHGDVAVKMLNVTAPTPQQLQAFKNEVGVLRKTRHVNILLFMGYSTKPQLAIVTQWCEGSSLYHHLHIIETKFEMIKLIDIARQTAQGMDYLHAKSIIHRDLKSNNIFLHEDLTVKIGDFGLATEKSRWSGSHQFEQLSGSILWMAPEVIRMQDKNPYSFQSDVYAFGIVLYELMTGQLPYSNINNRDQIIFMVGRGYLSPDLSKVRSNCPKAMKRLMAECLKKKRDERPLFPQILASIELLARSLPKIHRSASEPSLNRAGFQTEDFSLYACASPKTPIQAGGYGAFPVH
T1 sequence (P15056 whole entry): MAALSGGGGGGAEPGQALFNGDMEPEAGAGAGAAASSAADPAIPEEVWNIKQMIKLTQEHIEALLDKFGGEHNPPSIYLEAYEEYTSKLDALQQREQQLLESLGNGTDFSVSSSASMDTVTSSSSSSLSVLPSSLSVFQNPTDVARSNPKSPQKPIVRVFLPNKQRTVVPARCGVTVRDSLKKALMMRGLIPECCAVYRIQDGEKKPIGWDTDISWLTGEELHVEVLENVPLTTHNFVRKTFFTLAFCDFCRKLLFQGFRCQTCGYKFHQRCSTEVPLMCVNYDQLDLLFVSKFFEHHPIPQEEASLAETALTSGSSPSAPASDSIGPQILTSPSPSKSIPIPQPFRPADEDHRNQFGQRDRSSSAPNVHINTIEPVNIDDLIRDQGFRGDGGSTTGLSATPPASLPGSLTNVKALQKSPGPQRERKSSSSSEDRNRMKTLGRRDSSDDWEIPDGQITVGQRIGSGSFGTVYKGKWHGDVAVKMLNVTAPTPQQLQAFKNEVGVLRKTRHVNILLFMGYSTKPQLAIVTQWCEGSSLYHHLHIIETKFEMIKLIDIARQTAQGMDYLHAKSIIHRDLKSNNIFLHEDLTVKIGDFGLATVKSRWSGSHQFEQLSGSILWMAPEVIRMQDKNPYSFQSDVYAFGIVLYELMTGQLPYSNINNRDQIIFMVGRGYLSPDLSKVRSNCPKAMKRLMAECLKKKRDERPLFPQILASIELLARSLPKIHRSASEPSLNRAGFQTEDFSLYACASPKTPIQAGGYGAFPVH

Turning to “GRKKRRQRRRPQ [TAT peptide, cell-penetrating peptide used as the negative control, reference compound]”, the “activity of BRAF (phospho-MEK1/2)” value in assay [1] is given as “no inhibition effect was observed”. The “cell death, HCT-15” value in the assay with HCT-15 cells (at concentrations up to 100 μM) is on record as “no cell death was observed”. Moreover, in the assay on HCT116 cells (at concentrations up to 100 μM), the “cell death, HCT116” value was “no cell death was observed”.
Consider `CCCS(=O)(=O)Nc1ccc(F)c(C(=O)c2c[nH]c3ncc(-c4ccc(Cl)cc4)cc23)c1F` [vemurafenib, N-(3-{[5-(4-Chlorophenyl)-1H-pyrrolo[2,3-b]pyridin-3-yl]carbonyl}-2,4-difluorophenyl)propane-1-sulfonamide], for which the synergy with braftide entry in assay [2] (braftide 75 μM 2 hr, then vemurafenib 1 hr) was “same synergy effect between vemurafenib and braftide was validated”.
As for “Braftide conjugated with the TAT sequence (GRKKRRQRRRPQ; SEQ ID NO:2), a cell-penetrating peptide (GRKKRRQRRRPQTRHVNILLFM; also: possible unspecified modification flagged (lipid/PEG, unknown token)) [TAT-braftide]”, the “kinase activity of BRAF after proteasome inhibition” value with BRAF^WT in HEK293 cells is “still successfully inhibited the kinase activity of BRAF”. Further, in assay [1], the “activity of BRAF (phospho-MEK1/2)” value is recorded as “significantly reduced the activity of BRAF in a dose-dependent manner”; the “protein levels of overexpressed BRAF and endogenous MEK1” value is given as “markedly decreased in a dose-dependent manner”. Moreover, in the assay with HCT-15 cells (WST assay, read-out: EC50 of inhibition of cell growth, HCT-15), the EC50 stood at 9 µM. The IC50 in assay [3] is less than 10 µM. In the assay with HCT116 cells (WST assay, read-out: EC50 of inhibition of cell growth, HCT116), the EC50 turned out to be 5 µM. Also, in the assay with p61 BRAF^V600E, the “pMEK and pERK levels” value was “A decrease in both pMEK and pERK levels was observed”; the “protein level of p61” value is given as “not affected as dramatically as wild-type BRAF”.
With `CC(C)(C)c1nc(-c2cccc(NS(=O)(=O)c3c(F)cccc3F)c2F)c(-c2ccnc(N)n2)s1` [dabrafenib, N-{3-[5-(2-aminopyrimidin-4-yl)-2-tert-butyl-1,3-thiazol-4-yl]-2-fluorophenyl}-2,6-difluorobenzenesulfonamide], in assay [2] (setting [4]), the “concentration at which dabrafenib performed as an inhibitor” value is “above 10 μM” and the “effect on MAPK signaling at lower concentrations” value is given as “activated the MAPK signaling at lower concentrations”.

(Values after patent US11338012B2, “BRAF-based polypeptides for treatment of cancer” (UNIVERSITY OF THE SCIENCES, priority 2019, dated 2022).)
